In patent US8778941B2, “TRPM8 antagonists and their use in treatments” (AMGEN Inc., priority 2011, dated 2014):

Biological target: T1, human TRPM8 (Homo sapiens, UniProt Q7Z2W7)
T1 construct: expressed in transfected cells; host or cells: Chinese hamster ovary (CHO) cells, T-REx tetracycline-inducible expression system (Invitrogen), co-transfected with pcDNA3.1 jellyfish aequorin
Test: Luminescence readout assay for measuring intracellular calcium (aequorin), hTRPM8 antagonism
Assay type: cell-based
Details: CHO cell line expressing human TRPM8 and aequorin; activation by icilin, L-menthol or cold buffer (table does not say which)

T1 sequence (Q7Z2W7 whole entry): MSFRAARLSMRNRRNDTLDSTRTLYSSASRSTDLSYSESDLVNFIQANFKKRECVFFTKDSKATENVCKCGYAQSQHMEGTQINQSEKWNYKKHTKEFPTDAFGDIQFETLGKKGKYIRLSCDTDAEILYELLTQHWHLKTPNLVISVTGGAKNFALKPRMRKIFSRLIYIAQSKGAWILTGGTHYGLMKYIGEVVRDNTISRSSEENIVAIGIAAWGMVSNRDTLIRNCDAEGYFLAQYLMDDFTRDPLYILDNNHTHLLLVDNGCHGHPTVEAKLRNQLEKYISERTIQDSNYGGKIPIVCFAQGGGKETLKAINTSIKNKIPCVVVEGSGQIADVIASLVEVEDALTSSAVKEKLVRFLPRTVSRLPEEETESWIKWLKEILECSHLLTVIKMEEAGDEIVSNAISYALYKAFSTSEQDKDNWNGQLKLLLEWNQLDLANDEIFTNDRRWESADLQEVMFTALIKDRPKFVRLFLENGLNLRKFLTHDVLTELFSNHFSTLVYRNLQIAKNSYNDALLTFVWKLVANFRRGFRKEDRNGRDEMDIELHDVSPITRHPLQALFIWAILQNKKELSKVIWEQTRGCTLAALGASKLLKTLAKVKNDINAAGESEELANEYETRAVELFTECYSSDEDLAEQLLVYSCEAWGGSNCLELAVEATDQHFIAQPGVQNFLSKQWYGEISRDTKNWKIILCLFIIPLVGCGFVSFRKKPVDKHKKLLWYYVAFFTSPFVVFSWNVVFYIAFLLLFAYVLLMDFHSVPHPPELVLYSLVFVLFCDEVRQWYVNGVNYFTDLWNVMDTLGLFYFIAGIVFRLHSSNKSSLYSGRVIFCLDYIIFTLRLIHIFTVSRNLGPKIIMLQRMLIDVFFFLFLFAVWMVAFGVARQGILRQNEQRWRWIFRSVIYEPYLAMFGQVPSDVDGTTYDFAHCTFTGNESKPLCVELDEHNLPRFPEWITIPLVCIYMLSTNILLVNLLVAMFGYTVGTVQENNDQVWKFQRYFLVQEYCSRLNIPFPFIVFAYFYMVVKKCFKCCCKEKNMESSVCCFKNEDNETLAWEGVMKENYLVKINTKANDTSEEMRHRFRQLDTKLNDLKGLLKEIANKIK

| IC50 | Structure (SMILES) |
| --- | --- |
| 86 nM | O=C1Cc2ccc(NC(=O)N[C@@H](c3ccc(C(F)(F)F)cc3)c3ncccc3F)cc2N1 [Example 166, (S)-1-((3-fluoropyridin-2-yl)(4-(trifluoro-methyl)-phenyl)-methyl)-3-(2-oxoindolin-6-yl)urea] |
| 167 nM | O=C(Nc1cncnc1)N[C@@H](c1ccc(C(F)(F)F)cc1)c1ncccc1C(F)(F)F [Example 57, (S)-1-(pyrimidin-5-yl)-3-((4-(trifluoro-methyl)-phenyl)(3-(trifluoro-methyl)-pyridin-2-yl)-methyl)urea] |
| 886 nM | O=C(Nc1cccnc1)NC(c1ccc(C(F)(F)F)cc1)c1cccnc1Br (stereo not shown) [Example 114, 1-((2-bromopyridin-3-yl)(4-(trifluoro-methyl)-phenyl)-methyl)-3-(pyridin-3-yl)-urea (2,2,2-trifluoro-acetate)] |
| 308 nM | COc1ccc2cc([C@H](NC(=O)Nc3cccnc3)c3ncccc3C(F)(F)F)cnc2c1 [Example 18, (S)-1-((7-methoxy-quinolin-3-yl)-(3-(trifluoro-methyl)-pyridin-2-yl)-methyl)-3-(pyridin-3-yl)-urea] |
| 405 nM | Cc1ccccc1CNC(=O)N[C@@H](c1ccc(C(F)(F)F)cc1)c1ncccc1C(F)(F)F [Example 85, (S)-1-(2-methylbenzyl)-3-((4-(trifluoro-methyl)-phenyl)(3-(trifluoro-methyl)-pyridin-2-yl)-methyl)urea (2,2,2-trifluoro-acetate)] |
| 190 nM | CC(C)(C)NC(=S)N[C@@H](c1ccc(C(F)(F)F)cc1)c1ncccc1C(F)(F)F [Example 123, (S)-1-tert-butyl-3-((4-(trifluoro-methyl)-phenyl)(3-(trifluoro-methyl)-pyridin-2-yl)-methyl)-thiourea] |
| 156 nM | CSc1ccccc1NC(=O)N[C@@H](c1ccc(C(F)(F)F)cc1)c1ncccc1C(F)(F)F [Example 137, (S)-1-(2-(methylthio)-phenyl)-3-((4-(trifluoro-methyl)-phenyl)(3-(trifluoro-methyl)-pyridin-2-yl)-methyl)urea (2,2,2-trifluoro-acetate)] |
| 230 nM | COc1ccc([C@H](NC(=O)Nc2cccnc2)c2ncccc2C(F)(F)F)cc1 [Example 2, (S)-1-((4-methoxy-phenyl)(3-(trifluoro-methyl)-pyridin-2-yl)-methyl)-3-(pyridin-3-yl)-urea] |
| 541 nM | O=C(NCc1ccc(F)cc1)N[C@@H](c1ccc(C(F)(F)F)cc1)c1ncccc1C(F)(F)F [Example 144, (S)-1-(4-fluorobenzyl)-3-((4-(trifluoro-methyl)-phenyl)(3-(trifluoro-methyl)-pyridin-2-yl)-methyl)urea (2,2,2-trifluoro-acetate)] |
| 48 nM | CC#Cc1cccnc1[C@@H](NC(=O)N[C@@H](C)C(F)(F)F)c1ccc(C(F)(F)F)cc1 [Example 150, 1-((S)-(3-(prop-1-yn-1-yl)pyridin-2-yl)(4-(trifluoro-methyl)-phenyl)-methyl)-3-((S)-1,1,1-trifluoro-propan-2-yl)-urea] |
| 162 nM | COC(=O)c1ccccc1NC(=O)N[C@@H](c1ccc(C(F)(F)F)cc1)c1ncccc1F [Example 118, (S)-methyl 2-(3-((3-fluoro-pyridin-2-yl)-(4-(trifluoro-methyl)-phenyl)-methyl)-ureido)-benzoate] |
| 673 nM | O=C(NCCc1c(Cl)cccc1Cl)N[C@@H](c1ccc(C(F)(F)F)cc1)c1ncccc1C(F)(F)F [Example 132, (S)-1-(2,6-dichlorophen-ethyl)-3-((4-(trifluoro-methyl)-phenyl)(3-(trifluoro-methyl)-pyridin-2-yl)-methyl)urea (2,2,2-trifluoro-acetate)] |
| 1250 nM | Cn1ccc(NC(=O)N[C@@H](c2ccc(C(F)(F)F)cc2)c2ncccc2F)cc1=O [Example 161, (S)-1-((3-fluoropyridin-2-yl)(4-(trifluoro-methyl)-phenyl)-methyl)-3-(1-methyl-2-oxo-1,2-dihydropyridin-4-yl)urea] |
